Legend:
[1] = system: muscle atrophy model mice (immobilized mice); test: Effects of hydroxylated fatty acid on muscle atrophy model mice (hind limbs immobilized with plastic casts); format: in vivo, C57BL/6J mice; conditions: 1% in diet for 20 days (immobilization for the latter 10 days); for loss of soleus muscle (muscle weight per body weight): Fig. 2, n = 6; for loss of gastrocnemius muscle (gastrocnemius muscle weight per body weight): Fig. 3, n = 6; for loss of soleus muscle cross-sectional area: HE staining, 400 fibers pooled from 2 mice, Fig. 4
Source text: C57BL/6J mice (male, 10 weeks old) were fed a normal diet (CE-2, CLEA Japan, Inc.), a 1% linoleic acid-containing diet (LA), or a 1% 10-hydroxy-cis-12-octadecenoic acid-containing diet (HYA) (LA manufactured by Sigma-Aldrich and HYA manufactured by Noster Inc. were used) each for 10 days. Then, under general anesthesia, both hind limbs of the mice were immobilized with plastic casts to create immobilized mice. After 10 days of immobilization (still receiving the normal diet or each mixed diet), the mice were sacrificed and weighed. Both soleus muscles were then collected and weighed. The comparison results of muscle weight per body weight are shown in Fig. 2 (n = 6, *P < 0.05, **P < 0.01, 2-way ANOVA with Bonferroni's post hoc test). Furthermore, under the same conditions, both gastrocnemius muscles were collected and weighed. The comparison results of gastrocnemius muscle weight per body weight are shown in Fig. 3 (n = 6, *P < 0.05, **P < 0.01, 2-way ANOVA with Bonferroni's post hoc test).
(§1) In addition, the formalin-soaked soleus muscles were cut in the cross section at its largest diameter, and sections were prepared. After HE staining, the cross-sectional area of the muscle fibers was measured. The comparison results of soleus muscle cross-sectional area are shown in Fig. 4 (the area of 400 fibers pooled from 2 mice was measured and averaged for each condition, **P < 0.01, 2-way ANOVA with Bonferroni's post hoc test).

[2] = system: muscle atrophy model mice (high-fat diet administered mice); test: Effects of hydroxylated fatty acid on muscle atrophy model mice (high-fat diet administration); format: in vivo, C57BL/6J mice; conditions: 1% added to high-fat diet for 14 days, compared to administration of a high-fat diet alone; for soleus muscle weight (per body weight): Fig. 7, n = 12; for gastrocnemius muscle weight (per body weight): Fig. 8, n = 12; for tibialis anterior muscle cross-sectional area: HE staining, 400 fibers pooled from 2 mice, Fig. 9(B)
Description: C57BL/6J mice (male, 10 weeks old) were fed a normal diet (CE-2, CLEA Japan, Inc.), a high-fat diet (HFD32, CLEA Japan, Inc.), a 1% HYA-added high-fat diet, or a 1% LA (linoleic acid)-added high-fat diet (HYA manufactured by Noster Inc., LA manufactured by Sigma-Aldrich were used) each for 14 days to create a muscle atrophy model mouse by high-fat diet administration, and the effects by the administration of hydroxylated fatty acid were evaluated.
C57BL/6J mice (male, 10 weeks old) were fed a normal diet (CE-2, CLEA Japan, Inc.), a high-fat diet (HFD32, CLEA Japan, Inc.), a 1% HYA-added high-fat diet, or a 1% LA (linoleic acid)-added high-fat diet each for 14 days. After feeding, the mice were sacrificed and weighed. Both soleus muscles were collected and weighed. The comparison results of soleus muscle weight per body weight are shown in Fig. 7 (n = 12, **P < 0.01, 2-way ANOVA with Bonferroni's post hoc test). Furthermore, under the same conditions, both gastrocnemius muscles were collected and weighed. The comparison results of gastrocnemius muscle weight per body weight are shown in Fig. 8 (n = 12, **P < 0.01, 2-way ANOVA with Bonferroni's post hoc test).
as §1, with “formalin-soaked tibialis anterior muscle was” for “formalin-soaked soleus muscles were”, “HE staining (Fig. 9(A)),” for “HE staining,”, “of tibialis anterior” for “of soleus”, “Fig. 9(B)” for “Fig. 4”

[3] = compared to administration of a normal diet
[4] = compared to administration of linoleic acid

SMILES | loss of soleus muscle (muscle weight per body weight) [1, 3] | loss of gastrocnemius muscle (gastrocnemius muscle weight per body weight) [1, 3] | loss of soleus muscle cross-sectional area [1, 3] | loss of gastrocnemius muscle (gastrocnemius muscle weight per body weight) [1, 4] | loss of soleus muscle cross-sectional area [1, 4] | soleus muscle weight (per body weight) [2] | gastrocnemius muscle weight (per body weight) [2] | tibialis anterior muscle cross-sectional area [2]
CCCCC/C=C\CC(O)CCCCCCCCC(=O)O (stereo not drawn) [HYA, 10-hydroxy-cis-12-octadecenoic acid] | significantly inhibited | significantly inhibited | significantly inhibited | significantly inhibited | significantly inhibited | significantly increased | significantly increased | significantly increased
CCCCC/C=C\C/C=C\CCCCCCCC(=O)O [linoleic acid, reference compound] | did not significantly inhibit | did not significantly inhibit | did not significantly inhibit |  |  | a tendency toward an increase | a tendency toward an increase | a tendency toward an increase

From EP4772177A1, “MUSCLE ATROPHY INHIBITOR” (National University Corporation Kobe University, priority 2023, dated 2025)
